Measured values published in patent publication US20230175195A1, “PLASMA COATING TREATMENT METHOD FOR INHIBITING BIOLOGICAL PATHOGEN TRANSFER” (MOLECULAR PLASMA GROUP S.A., priority 2020, published 2023).
Where two headings read alike, the source gives them in different places.

How the values were obtained:
[1] = system: Escherichia coli (gram-negative); test: Quantitative antibacterial activity test of treated materials (OECD guideline, ISO 22197/20743), gram-negative
Description: The coatings in the tests described below were obtained using a PlasmaSpot® by Molecular Plasma Technology, using a power around 100 W (but any power between 60-450 W can work), a voltage about 15 kV (but any voltage between 5 and 25 kV seems to work), a frequency about 60 kHz, plasma gas N2, (but also N2, He, Ar, even air and mixtures thereof can be used), a plasma gas flowabout 100 slm (but any plasma flow between 10 and 250 slm can be used), the precursor injected as aerosol (but a liquid precursor, gas precursor, a mixture of liquids, solutions, dispersions, etc . . . also work well), a working distance about 8 mm (but any working distance between 1 and 20 mm seems to work), a temperature about room temperature.
Further tests were performed to illustrate antibacterial behaviour. Tests were performed on a polypropylene nonwoven (PPNW) substrate having a density of 25 g/m^2, which is commonly used as the outer layer of a surgical face mask, and on the synthetic textile Tyvek®.
Droplets containing bacterial suspension are placed on the treated material and evaluated after an incubation period. After the incubation, the bacteria are recovered from the tested material by washing it with a recovery medium. This recovery medium is then analysed for presence of the pathogen by incubation of the recovery medium on agar plates.
The bacteriae used in the testing were Staphylococcus aureus (gram-positive) and Escherichia coli (gram-negative).
The test is based on the international standard given by OECD guidelines for testing of chemicals based on ISO standards 22197/20743: Quantitative method for evaluating antibacterial activity of porous and non-porous antibacterial treated materials.

[2] = system: Bacteriophage MS2; test: Viral load reduction test per ASTM E2721-16 with MS2 instead of Influenza A, on plasma-coated substrate; format: cell-based
[3] = system: Staphylococcus aureus (gram-positive); test: Quantitative antibacterial activity test of treated materials (OECD guideline, ISO 22197/20743), gram-positive; format: cell-based, S. aureus ATCC6538P
[4] = plasma coating on PPNW substrate (polypropylene nonwoven, 25 g/m^2)
[5] = plasma coating on synthetic textile substrate (Tyvek)
[6] = plasma coating of the precursor on Tyvek substrate, MS2 phages, LOD = limit of detection

Compound	% Gram− bacteria reduced [1, 4] [%]	Gram− log reduction [1, 4]	% Gram− bacteria reduced [1, 5] [%]	Gram− log reduction [1, 5]	LOG Reduction [2]	% Gram+ bacteria reduced [3, 4] [%]	Gram+ log reduction [3, 4]	% Gram+ bacteria reduced [3, 5] [%]	Gram+ log reduction [3, 5]	LOG Reduction [2, 6]
Benzalkonium chloride	99.9996	5.4	98.7	1.9	>3.8 (LOD)	>99.994	>4.2	>99.5	>3.3	
Citric Acid	>99.999	>5.0	97.5	1.6		>99.995	>4.3	>99.98	>3.8	>5.0 (LOD)
CCCCCCCCCCCCCCCCCC[N+](C)(C)CCC[Si](OC)(OC)OC.[Cl-] [SiQAM, Dimethyloctadecyl[3-(trimethoxysilyl)propyl] ammonium chloride]	>99.9996	>5.4	>98.7	>1.9		>99.994	>4.2	>99.95	>3.3	1.56
PVP-I2 Poly(vinylpyrrolidone)-Iodine complex [reference compound]	>99.9996	>5.4				>99.994	>4.2			
